According to patent publication US7615543B2, “Treatment and prevention of tissue damage” (Pentraxin Therapeutics Limited, priority 2002, dated 2009):
Read-outs that look alike come from different tables or passages of the source. One block for each compound: values may come before it.

Assays:
mouse SAP = target: T1, mouse SAP (Mus musculus, UniProt P12246); settings: CPHPC administered to mice; cited from earlier work
T1 construct: host or cells: mice, endogenous circulating SAP
T1 sequence (P12246 21-224): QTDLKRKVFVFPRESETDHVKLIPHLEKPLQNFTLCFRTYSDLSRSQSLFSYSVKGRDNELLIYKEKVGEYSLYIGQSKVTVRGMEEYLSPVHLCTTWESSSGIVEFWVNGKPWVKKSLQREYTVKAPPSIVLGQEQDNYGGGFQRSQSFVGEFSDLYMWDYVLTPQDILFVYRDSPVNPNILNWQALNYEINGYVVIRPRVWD

SAP [1] = target: T2, SAP (Homo sapiens, UniProt P02743); parameters: human SAP expressed in human SAP transgenic mice; host or cells: human SAP transgenic mice; circulation in vivo; settings: cited from earlier work
SAP [2] = target: T2, SAP; test: Isothermal calorimetry of CPHPC with SAP; settings: read-out: affinity of binding, SAP and CPHPC
Text: This phenomenon contrasts sharply with the behaviour in vivo of the closely related molecule, serum amyloid P component (SAP), the other member of the human pentraxin protein family. SAP shares with CRP the homopentameric structure consisting of 5 identical protomers non-covalently associated in a disc like configuration, with a single calcium-dependent ligand binding site on one face of each subunit. […] The handling of aggregated human SAP in vivo may thus differ markedly from that of aggregated CRP. […] Thus compounds that are both bound by CRP with higher affinity and that cross-link it in more avid stable complexes, may cause accelerated clearance from the plasma in vivo.

CRP [3] = target: T3, CRP (Homo sapiens, UniProt P02741); test: Gel filtration (molecular sieve) chromatography of CRP molecular assembly; type: binding; settings: 10 fold molar excess of drug
T3 sequence (P02741 19-224): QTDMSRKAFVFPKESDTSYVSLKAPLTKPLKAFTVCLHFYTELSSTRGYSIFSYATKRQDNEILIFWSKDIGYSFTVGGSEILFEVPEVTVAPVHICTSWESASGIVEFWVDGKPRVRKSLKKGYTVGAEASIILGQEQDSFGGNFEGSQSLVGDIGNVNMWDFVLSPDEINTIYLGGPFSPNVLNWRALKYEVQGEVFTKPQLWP
Text: The ligand binding sites on each of the 5 protomers in the CRP molecule are all on the same face of the disc-like pentameric assembly of the native protein.

CRP [4] = target: T3, CRP

T2 sequence (P02743 20-223): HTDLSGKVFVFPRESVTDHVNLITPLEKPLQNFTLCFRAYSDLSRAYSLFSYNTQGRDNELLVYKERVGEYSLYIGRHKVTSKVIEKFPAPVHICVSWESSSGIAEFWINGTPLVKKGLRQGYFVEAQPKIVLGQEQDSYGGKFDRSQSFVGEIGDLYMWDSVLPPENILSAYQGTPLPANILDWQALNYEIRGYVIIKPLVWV

Kd (SAP [2]): 0.01 µM
Compound: O=C(O)[C@H]1CCCN1C(=O)CCCCC(=O)N1CCC[C@@H]1C(=O)O [CPHPC, (R)-1-[6-[(R)-2-Carboxy-pyrrolidin-1-yl]-6-oxo-hexanoyl]pyrrolidine-2-carboxylic acid]
effect on clearance of mouse SAP in vivo (mouse SAP): does not accelerate clearance
effect on human SAP in vivo (SAP [1]; human SAP transgenic mice): dramatically clears
clearance of SAP-CPHPC complexes from the circulation in vivo (SAP [1]; pairs of SAP molecules cross linked by CPHPC): very rapidly cleared

Molecular assembly of CRP (CRP [3]): Single pentamers
Compound: C[N+](C)(C)CCOP(=O)([O-])O [phosphocholine]

reduction of MIRA CRP concentration (CRP [4]; CRP 100 mg/l, SAP 100 mg/l (~4 μM), DPHPC 400 μM): 58%
reduction of MIRA CRP concentration (CRP [4]; CRP 100 mg/l, SAP 100 mg/l (~4 μM), DPHPC 2 mM): 89%
reduction of MIRA CRP concentration (CRP [4]; CRP 100 mg/l, SAP 100 mg/l (~4 μM), DPHPC 4 mM): 99%
effect on apparent CRP concentration in MIRA assay (CRP [4]; added to isolated pure CRP, no SAP): slightly reduces
reduction of MIRA CRP value (CRP [4]; pure CRP 100 mg/l (~4 μM), DPHPC 400 μM, no SAP): no effect
reduction of MIRA CRP value (CRP [4]; pure CRP 100 mg/l (~4 μM), DPHPC 4 mM, no SAP): 91%
reduction of MIRA CRP value (CRP [4]; second experiment: ~4 μM CRP, 1 mM DPHPC, SAP 400 nM): 61%
reduction of MIRA CRP value (CRP [4]; second experiment: ~4 μM CRP, 1 mM DPHPC, SAP 800 nM): 61%
reduction of MIRA CRP value (CRP [4]; second experiment: ~4 μM CRP, 1 mM DPHPC, SAP 2 μM): 73%
reduction of MIRA CRP value (CRP [4]; second experiment: ~4 μM CRP, 1 mM DPHPC, SAP about 4 μM): 85%
reduction of MIRA CRP concentration (CRP [4]; second experiment: ~4 μM CRP, 1 mM DPHPC, no SAP): 62%
reduction of MIRA CRP value (CRP [4]; whole serum, SAP and CRP both ~4 μM, 4 mM DPHPC): 44%
enhancement by SAP of the effect of DPHPC alone in MIRA (CRP [4]; whole serum, SAP concentrations lower than 2 μM, 4 mM DPHPC): no enhancement
reduction of MIRA CRP value (CRP [4]; whole serum, ~4 μM CRP, 2 μM SAP, 4 mM DPHPC): 29%
reduction of CRP detectable in MIRA assay (CRP [4]; whole serum, ~4 μM CRP, 4 mM DPHPC, no added SAP): 19%
Compound: D-Pro-hexanoyl-phosphocholine [DPHPC]
